# Measurements: patent EP3685668B1, “COMPOSITION COMPRISING ACIBENZOLAR-S-METHYL AS EFFECTIVE INGREDIENT FOR CONTROLLING BURSAPHELENCHUS XYLOPHILUS DISEASE AND METHOD FOR CONTROLLING BURSAPHELENCHUS XYLOPHILUS USING SAME” (Industry Foundation of Chonnam National University, priority 2017, dated 2019)
# What was measured:
# [1] = system: Bursaphelenchus xylophilus; experiment: Occurrence of pine wilt disease after trunk injection of induced resistance candidate materials, in vivo test in young red pine trees; details: red pine tree (Pinus densiflora), 30 days after inoculation; for Occurrence rate of pine wilt disease: Number of pine trees showing wilt symptoms / Number of pine trees used for the test: trunk injection 100 µℓ per tree; for Number of pine trees showing wilt symptoms only at growing points of a stem: trunk injection
# Experimental: By using the 15 types of an induced resistance elicitors which have been known to induce the plant resistance against various diseases as candidates, their controlling effect against pine wilt disease was examined. The control efficacy of candidates against pine wilt disease was analyzed according to an in vivo test using red pine tree (Pinus densiflora) which was 2-year old young pine trees (diameter of 5.5 mm or so, and height of about 35 mm).
# As a candidate group of an induced resistance material, two kinds of acibenzolar-S-methyl (ASM), TDL (Tiadinil), ITL (Isotianil), PBZ (Probenzole), AZO (Azoxystrobin), VMA (Validamycin A), MeJA (Methyl jasmonate), BABA (DL-3-aminobutyric acid), 2,3-BDO (2,3-Butanediol), SA (salicyclic acid), GABA (r-Aminobutyric acid), glucan (Glucan), ER (Ergosterol), and AZA (Azelaic acid) were used. Only the use of acibenzolar-S-methyl is according to the invention. Injection of the chemicals was carried out by trunk injection method, i.e., at an angle of 45°, a borehole was created by using an electric drill with thickness of 1.5 mm on a pine stem part that is 5 to 10 cm above the soil surface, a tip (200 µℓ) was inserted to the hole, and, after dissolving the candidate material at concentration level of 200, 20, or 2 µg/mℓ in each solvent, the solution was injected in an amount of 100 µℓ per pine tree. After the injection of the chemical agent, the end part of the tip was sealed with parafilm.
# The pine tree wilt nematodes (Bursaphelenchus xylophilus, National Institute of Forest Science (NIFoS), South Korea) was incubated at 25°C by feeding them with Botrytis cinerea, which have been cultured on a potato dextrose agar (PDA) medium, and after one week incubation, they were collected by Baermann funnel method and were adjusted to the level of 20,000 worms/mℓ by examining the number of the worms under an optical microscope. One week after the chemical treatment, the inoculation of the pine tree wilt nematodes was carried out by tree barking inoculation of 100 µℓ, i.e., 2,000 worms, per tree, and the result was determined 30 days after the inoculation. […] [Table 1] Occurrence rate of pine wilt disease in candidate group of induced resistance materials
# [2] = system: Cytochrome_P450; experiment: qRT-PCR expression of induced resistance gene in pine tree callus; type: cell-based; details: for Expression of induced resistance gene, Cytochrome_P450: 24 hours
# Experimental: For in vitro analysis of induced resistance, the expression of PR genes and other plant defense-related genes was determined, which are evolved in various defense mechanisms including induced resistance. The primers of sixteen induced resistance-related genes of pine tree used in this invention were listed in the below and elongation factor_1 alpha were used as a reference gene. […] The primer list of defense resistance-related genes
# After the treatment with 200 µg / mℓ of candidates of the selected induced resistance material, expression of the induced resistance-related gene in pine callus was determined by qRT-PCR using the primer pairs of defense resistance-related genes in Table 4. As a candidate group of an induced resistance material in pine tree, acibenzolar-S-methyl (ASM), TDL (Tiadinil), ITL (Isotianil), PBZ (Probenzole), AZO (Azoxystrobin), VMA (Validamycin A), MeJA (Methyl jasmonate), BABA (DL-3-aminobutyric acid), 2,3-BDO (2,3-Butanediol), GABA (r-Aminobutyric acid), glucan (Glucan), ER (Ergosterol), and AZA (Azelaic acid) were used. For the in vitro analysis of the expression of induced resistance gene in pine callus, the selected induced resistance materials were applied with 500 µℓ of LM liquid medium on a surface of pine tree callus (100 mg) in 12-well microplate to give final concentration of 200 µg/mℓ. Then, the callus surface was sufficiently reacted for 24 hours with the candidate of pine tree induced resistance material by shaking at 50 rpm in a 25 °C shaking incubator under dark condition. RNAs were extracted from the callus after completion of the reaction with an induced resistance material, followed by synthesis of cDNAs. Then, by carrying out qRT-PCR, the expression of induced resistance genes was determined.
# Thus, the following tests were carried out using acibenzolar-S-methyl only. Expression of the induced resistance genes at different culture time after the chemical treatment was examined. For the in vitro assay, LM medium containing pine tree callus was treated with acibenzolar-S-methyl at concentration of 200 µg / mℓ, followed by reaction for 1 day, 7 days, or 14 days in a 25°C shaking incubator under dark condition. RNAs were extracted from the callus after the reaction followed by synthesis of cDNAs. Then, by carrying out qRT-PCR, the expression of the induced resistance genes was determined. Depending on reaction time after the treatment, i.e., after 1 day, 7 days, or 14 days, the expression of the obtained induced resistance genes was examined. […]
# For the surface treatment (spraying treatment) of pine tree callus, 100 mg of the pine tree callus were dunked in 500 µℓ LM liquid medium and 500 µℓ of 400 µg/mℓ acibenzolar-S-methyl were sprayed (i.e., sprayed 5 times, 100 µℓ for each spraying, 200 µg/mℓ) on the callus surface. Then, the pine callus sprayed with acibenzolar-S-methyl was reacted for 24 hours by shaking at 50 rpm in a 25°C shaking incubator under dark condition. After the completion of the 24-hour reaction, RNAs were extracted from the callus followed by synthesis of cDNAs. Then, by carrying out qRT-PCR, expression of the induced resistance gene was determined.
Compound,Occurrence rate of pine wilt disease: Number of pine trees showing wilt symptoms / Number of pine trees used for the test ([1]; 2 µg/mℓ),Occurrence rate of pine wilt disease: Number of pine trees showing wilt symptoms / Number of pine trees used for the test ([1]; 20 µg/mℓ),Occurrence rate of pine wilt disease: Number of pine trees showing wilt symptoms / Number of pine trees used for the test ([1]; 200 µg/mℓ),Number of pine trees showing wilt symptoms only at growing points of a stem ([1]; 2 µg/mℓ),Number of pine trees showing wilt symptoms only at growing points of a stem ([1]; 20 µg/mℓ),Number of pine trees showing wilt symptoms only at growing points of a stem ([1]; 200 µg/mℓ),"Expression of induced resistance gene, Cytochrome_P450 ([2]; 200 µg/mℓ)","Expression of induced resistance gene, Cytochrome_P450 ([2]; 200 µg/mℓ, Direct supplying as a medium component)","Expression of induced resistance gene, Cytochrome_P450 ([2]; 200 µg/mℓ, Spraying)","Gene expression level, Cytochrome_P450 ([2]; 200 µg/mℓ, After 1 day)","Gene expression level, Cytochrome_P450 ([2]; 200 µg/mℓ, After 7 days)","Gene expression level, Cytochrome_P450 ([2]; 200 µg/mℓ, After 14 days)","Gene expression level, Cytochrome_P450 ([2]; concentration series, 2 µg/mℓ)","Gene expression level, Cytochrome_P450 ([2]; concentration series, 20 µg/mℓ)","Gene expression level, Cytochrome_P450 ([2]; concentration series, 200 µg/mℓ)"
"CC(O)C(C)O (stereo not shown) [2,3-BDO, 2,3-Butanediol]",2/3,3/3,1/3,2,1,1,0.88,,,,,,,,
"NCCCC(=O)O [GABA, r-Aminobutyric acid]",3/3,1/3,0/3,1,1,,2.41,,,,,,,,
"OCC1=C[C@@H](N[C@H]2C[C@H](CO)[C@@H](O[C@H]3O[C@@H](CO)[C@H](O)[C@@H](O)[C@@H]3O)[C@H](O)[C@H]2O)[C@H](O)[C@@H](O)[C@@H]1O [VMA, Validamycin A]",2/3,1/3,2/3,2,1,1,1.17,,,,,,,,
"CC(N)CC(=O)O (racemic) [BABA, DL-3-aminobutyric acid]",2/3,3/3,2/3,2,2,2,0.37,,,,,,,,
"CC/C=C\CC1C(=O)CCC1CC(=O)OC (stereo not shown) [MeJA, Methyl jasmonate]",3/3,2/3,2/3,1,1,2,0.3,,,,,,,,
"CC(C)[C@@H](C)/C=C/[C@@H](C)[C@H]1CC[C@H]2C3=CC=C4C[C@@H](O)CC[C@]4(C)[C@H]3CC[C@]12C [ER, Ergosterol]",3/3,0/3,1/3,1,,,1.06,,,,,,,,
"Cc1ccc(NC(=O)c2snnc2C)cc1Cl [TDL, Tiadinil]",3/3,2/3,1/3,3,2,1,0.91,,,,,,,,
"N#Cc1ccccc1NC(=O)c1snc(Cl)c1Cl [ITL, Isotianil]",2/3,2/3,1/3,1,2,1,0.98,,,,,,,,
"CO/C=C(/C(=O)OC)c1ccccc1Oc1cc(Oc2ccccc2C#N)ncn1 [AZO, Azoxystrobin]",0/3,2/2,2/3,,1,2,1.17,,,,,,,,
"CSC(=O)c1cccc2nnsc12 [ASM, acibenzolar-S-methyl]",1/3,1/3,0/3,1,1,,1.71,9.99,1.71,7.21,0.85,0.04,1.231,1.173,1.231
"C=CCOC1=NS(=O)(=O)c2ccccc21 [PBZ, Probenzole]",2/3,0/3,1/3,1,,1,1.06,,,,,,,,
